Experimental data reported in ChEMBL document CHEMBL4376882, “Photodynamic Therapy for ras-Driven Cancers: Targeting G-Quadruplex RNA Structures with Bifunctional Alkyl-Modified Porphyrins” (J Med Chem, 2020).
The source made the active and inactive calls. The calls are words filed in the database; no cut-off is given here.

Key:
[1] = Drug uptake in human PANC1 cells in presence of dynamin-inhibitor dynasore; format: ADME, cell-based; conditions: panc-1
Quadruplex DNA [2] = test: Binding affinity to NRAS RNA g-quadruplex (unknown origin) by fluorescence spectroscopy; format: nucleic-acid assay
[3] = Drug uptake in human PANC1 cells at 5 uM after 16 hrs by FACS analysis; format: ADME, cell-based; conditions: panc-1, 16 h
[4] = Drug uptake in human PANC1 cells at 5 uM after 2 hrs by FACS analysis; format: ADME, cell-based; conditions: panc-1, 2 h
Quadruplex DNA [5] = test: Binding affinity to human KRAS utr-z RNA g-quadruplex by fluorescence spectroscopy; format: nucleic-acid assay
Quadruplex DNA [6] = test: Binding affinity to human KRAS utr-1 RNA g-quadruplex by fluorescence spectroscopy; format: nucleic-acid assay
Quadruplex DNA [7] = test: Binding affinity to human KRAS utr-c RNA g-quadruplex by fluorescence spectroscopy; format: nucleic-acid assay
HEK293 = test: Cytotoxicity against human HEK293 cells assessed as reduction in metabolic activity after 24 to 72 hrs in dark followed by photoirradiation in presence of NADH by resazurin assay; format: ADME, cell-based
[8] = Binding affinity to NRAS RNA g-quadruplex (unknown origin) at 40 degree C by SPR analysis; format: nucleic-acid assay
MIA PaCa-2 = test: Cytotoxicity against human MIAPaCa2 cells harboring G12C point mutation assessed as reduction in metabolic activity after 48 hrs in dark followed by photoirradiation in presence of NADH by resazurin assay; format: functional, cell-based
PANC-1 [9] = test: Cytotoxicity against human PANC1 cells assessed as reduction in metabolic activity at 20 nM after 24 to 72 hrs in dark followed by photoirradiation in presence of NADH by resazurin assay; format: functional, cell-based
Quadruplex DNA [10] = test: Binding affinity to human KRAS utr-z RNA g-quadruplex at 40 degree C by SPR analysis; format: nucleic-acid assay
PANC-1 [11] = test: Cytotoxicity against human PANC1 cells assessed as reduction in metabolic activity after 48 hrs in dark followed by photoirradiation in presence of NADH by resazurin assay; format: functional, cell-based; conditions: PANC-1, light or radiation study
PANC-1 [12] = test: Cytotoxicity against human PANC1 cells assessed as reduction in metabolic activity at 20 nM after 24 to 72 hrs in dark followed by photoirradiation in presence of NADH and NAC by resazurin assay; format: functional, cell-based
RNA [13] = test: Binding affinity to total RNA in human PANC1 cells assessed as increase in amount of NRAS mRNA in recovered RNA from biotin-streptavidin pulled down at 0.2 to 0.6 uM at pH 7.4 and 4 degree C using biotinylated compound by qRT-PCR analysis relative to control; format: cell-based
RNA [14] = test: Binding affinity to total RNA in human PANC1 cells assessed as increase in amount of HPRT mRNA in recovered RNA from biotin-streptavidin pulled down at 0.2 to 0.6 uM at pH 7.4 and 4 degree C using biotinylated compound by qRT-PCR analysis; format: cell-based
RNA [15] = test: Binding affinity to total RNA in human PANC1 cells assessed as increase in amount of KRAS mRNA in recovered RNA from biotin-streptavidin pulled down at 0.2 to 0.6 uM at pH 7.4 and 4 degree C using biotinylated compound by qRT-PCR analysis relative to control; format: cell-based
DNA [16] = test: Binding affinity to DNA (unknown origin) strands containing 95 and 89 nucleotides in ratio of 1:2 assessed as interaction between G4 motif of 95 nucleotides and biotinylated compound at 0.2 to 0.4 uM at pH 7.4 after 1 hr by biotin-streptavidin pull-down assay; format: nucleic-acid assay
DNA [17] = test: Binding affinity to DNA (unknown origin) strands containing 95 and 89 nucleotides in ratio of 1:2 assessed as presence of ssDNA when G4 motif of 95 nucleotides interact with biotinylated compound at > 0.4 uM at pH 7.4 after 1 hr by biotin-streptavidin pull-down assay; format: nucleic-acid assay
RNA [18] = test: Binding affinity to total RNA in human PANC1 cells assessed as increase in amount of beta2-microglobulin mRNA in recovered RNA from biotin-streptavidin pulled down at 0.2 to 0.6 uM at pH 7.4 and 4 degree C using biotinylated compound by qRT-PCR analysis; format: cell-based

Row | SMILES | Activity (HEK293) | Kd [8] [nM] | Activity (MIA PaCa-2) | Activity (PANC-1 [9]) | Kd (Quadruplex DNA [10]) [nM] | EC50 (PANC-1 [11]) [nM] | Activity (PANC-1 [12]) | further results
1 | C[n+]1ccc(-c2c3nc(c(-c4cc[n+](C)cc4)c4ccc([nH]4)c(-c4cc[n+](C)cc4)c4nc(c(-c5cc[n+](C)cc5)c5ccc2[nH]5)C=C4)C=C3)cc1.[Cl-].[Cl-].[Cl-].[Cl-] [TMPYP4 CHLORIDE] |  |  |  |  |  |  |  | Drug uptake [1]: Active; Kd (Quadruplex DNA [2]): 301 nM; Drug uptake [3]: Active; Drug uptake [4]: Not Active; Kd (Quadruplex DNA [5]): 681 nM; Kd (Quadruplex DNA [6]): 454 nM; Kd (Quadruplex DNA [7]): 1020 nM
2 | CCCCCCCCCCCCCCCC[n+]1ccc(-c2c3nc(c(-c4cc[n+](C)cc4)c4ccc([nH]4)c(-c4cc[n+](C)cc4)c4nc(c(-c5cc[n+](C)cc5)c5ccc2[nH]5)C=C4)C=C3)cc1.[I-].[I-].[I-].[I-] | Non-Toxic | 56 to 98 | Active | Active | 82 to 202 | 19.2 | inactive | 
3 | CCCCCCCCCCCC[n+]1ccc(-c2c3nc(c(-c4cc[n+](C)cc4)c4ccc([nH]4)c(-c4cc[n+](C)cc4)c4nc(c(-c5cc[n+](C)cc5)c5ccc2[nH]5)C=C4)C=C3)cc1.[I-].[I-].[I-].[I-] | Non-Toxic | 56 to 98 | Active | Active | 82 to 202 | 13.1 | inactive | 
4 | C[n+]1ccc(-c2c3nc(c(-c4cc[n+](C)cc4)c4ccc([nH]4)c(-c4cc[n+](CCCCCCCCCCCCNC(=O)CCCC[C@@H]5SC[C@@H]6NC(=O)N[C@@H]65)cc4)c4nc(c(-c5cc[n+](C)cc5)c5ccc2[nH]5)C=C4)C=C3)cc1 |  |  |  |  |  |  |  | Activity (RNA [13]): Active; Activity (RNA [14]): inactive; fold change (FC) (RNA [15]): 25; Activity (DNA [16]): Active; Activity (DNA [17]): Active; Activity (RNA [18]): inactive
